Data: patent US9783551B2, “Pyranochromenyl phenol derivative, and pharmaceutical composition for treating metabolic syndrome or inflammatory disease” (GLACEUM, INC., priority 2013, dated 2017)

Legend:
DIO mice = experiment: Anti-obesity effect for DIO mice (body weight); type: in vivo, C57BL/6 mice; details: Mus musculus, 672 h; 4 weeks, 150 mg/kg, oral gavage once daily
Experimental: Five-week-old female C57BL/6 mice (Narabio Co., Ltd.) were purchased and fed with only high-fat diet for at least 10 weeks to produce diet induced obesity ([…]) mice. Samples were exactly taken from Preparation Example 1 (glabridin) and the compounds of Examples of the present invention (Compounds 1 to 5, 7, 9, 11, 14 to 16, 21, and 23) according to the administration dose and put into Falcon tubes, 3 ml of a 0.5% methyl cellulose aqueous solution was added thereto and a vortex mixer was used to primarily mix the ingredients in a soft manner, and then a homogenizer (30,000 rpm, Ultra-Turrax® T10 Basic, IKA) was used to treat the sample for 3 minutes while 1.5 ml of a 0.5% methyl cellulose aqueous solution was added thereto. The sample thus prepared was administered through oral gavage using a disposable plastic syringe once daily for 28 days (4 weeks). The body weight was measured twice a week while the DIO mice were bred in this manner. Based on the data thus calculated, the anti-obesity effect (%) was calculated according to the equation defined as follows. Anti-Obesity Effect={(Body weight of control group)−(Body weight of experimental group)}/(Body weight of control group)×100

BV2 microglia cells = experiment: BV2 cell NO assay (LPS-induced NO production, Griess reagent); type: cell-based; details: Mus musculus, BV-2, LPS 1 μg/ml, 24 hours
Experimental: (§1) After the pretreatment, 0.5 mg/ml of the MTT (Sigma, M2128) reagent was further added thereto. After the cells were cultured in a 5% CO2 incubator, the supernatant was discarded, 150 μl of DMSO was added and was shaken for 30 minutes, and an ELISA micro plate reader (Bio Rad Laboratories Inc., California, USA, Model 680) was used to measure the absorbance at a wavelength of 540 nm. All the experimental values were calculated as an average value of three repeated experimental values of the cell protection rate for the control group, and an experiment of suppressing the NO production for each compound was carried out at a concentration in which no cytotoxicity was shown.
(§2) After the reaction, an ELISA micro plate reader (Bio Rad Laboratories Inc., California, USA, Model 680) was used to measure the absorbance at a wavelength of 540 nm. The suppression rate was calculated as a difference in amount of NO produced between the control group and the experimental group, and as shown in the following Table 6 and FIG. 6, Compounds 4, 5, 15, 16, 18, and the like of the present invention were excellent in the effect of suppressing the production of NO, and the effect is also about 5 times to about 9 times better than that of glabridin.

RAW264.7 macrophages = experiment: RAW264.7 macrophage NO assay (LPS-induced NO production, Griess reagent); type: cell-based
Experimental: as §1, with “pretreatment,” for “pretreatment, 0.5 mg/ml of”, “reagent at a concentration of 0.5 mg/ml” for “reagent”, “incubator for 4 hours,” for “incubator,”
as §2, with “7,” for “6 and FIG. 6,”, “NO.” for “NO, and the effect is also about 5 times to about 9 times better than that of glabridin.”

db/db mice [1] = experiment: Liver histology (H&E, perilipin antibody) of db/db mice after 6 weeks; type: in vivo, C57BLKS/J-db/db mice; details: administered for 6 weeks, compared with control group
Experimental: (§3) 5-week-old male C57BLKS/J-db/db mice (Central Lab. Animal Inc.) were purchased and acclimatized for 2 weeks, and then used in this experiment. Samples were exactly taken from the compounds prepared in Examples 4 and 15 of the present invention (Compounds 5 and 16) according to the administration dose and put into Falcon tubes, a 0.5% methyl cellulose aqueous solution stored refrigerated was placed at room temperature to allow the excipients to be warmed at room temperature, 16 ml of each of the excipients was added to a 50 ml Falcon tube, and a vortex mixer was used to primarily mix the ingredients in a soft manner, and then a suspension was obtained and homogenized by treating the sample for 3 minutes using a homogenizer (30,000 rpm, CPT-1600E, Kinemtica, Switzerland), and then ultrasonically treated for 30 minutes. The sample thus prepared was administered through oral gavage using a disposable plastic syringe equipped with a sonde once daily for 42 days (6 weeks).
The mouse to which Compound 16 had been administered for 6 weeks in this experiment was finally sacrificed and autopsied to collect a liver, the liver was excised and each stained with hematoxylin and eosin (H&E) and perilipin antibody, the stained tissue was observed using a microscope, and the results are shown in FIGS. 2 to 5. […]

db/db mice [2] = experiment: Anti-diabetic effects for db/db mice (glycosylated hemoglobin); type: in vivo, C57BLKS/J-db/db mice
Experimental: as §3
The glycosylated hemoglobin (HbA1c) was measured while the db/db mice were bred. The gyclosylated hemoglobin was measured at 2 days prior to group separation, 4 weeks after administration, and 6 weeks after administration, and was measured by fasting the mice for 4 hours on the measurement date, collecting blood from the caudal vein before each material was administered, and using a device for measuring glycosylated hemoglobin (SD A1cCare, SD Biosensor, Inc., Korea).

PTP1B = PTP1B (Homo sapiens (Human), UniProt P18031); experiment: Experiment of PTP1B inhibition (p-NPP dephosphorylation); type: biochemical; details: 2 mM p-NPP substrate, 30° C., 30 minutes
Chain of PTP1B (P18031 whole entry, species assumed): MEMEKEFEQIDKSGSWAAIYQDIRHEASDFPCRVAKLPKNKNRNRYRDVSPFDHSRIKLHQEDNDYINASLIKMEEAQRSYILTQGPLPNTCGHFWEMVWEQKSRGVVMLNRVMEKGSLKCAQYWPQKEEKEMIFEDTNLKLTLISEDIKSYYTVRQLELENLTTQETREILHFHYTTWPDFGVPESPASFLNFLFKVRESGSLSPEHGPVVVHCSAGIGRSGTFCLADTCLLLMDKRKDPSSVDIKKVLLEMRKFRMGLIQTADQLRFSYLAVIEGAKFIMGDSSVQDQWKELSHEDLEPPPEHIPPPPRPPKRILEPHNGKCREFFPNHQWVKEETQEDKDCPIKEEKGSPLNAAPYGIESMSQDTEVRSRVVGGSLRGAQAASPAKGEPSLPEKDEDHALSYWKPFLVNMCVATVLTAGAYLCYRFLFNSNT
From the text: With respect to PTP1B, the degrees of inhibition (IC50 The half maximal inhibitory concentration) of glabridin, and compounds of Preparation Example 2 (Compound 1), Example 2 (Compound 3), Example 3 (Compound 4), Example 4 (Compound 5), Example 13 (Compound 14), Example 14 (Compound 15), Example 15 (Compound 16), Example 17 (Compound 18), Example 18 (Compound 19) and Example 20 (Compound 21) were compared to each other. For this purpose, the degree of inhibition activity for PTP1B was investigated by using 2 mM p-nitrophenyl phosphate (p-NPP) as a substrate to measure the dephosphorylation degree. First, PTP1B diluted with distilled water was reacted with 2 mM p-nitrophenyl phosphate {p-NPP, 0.1 M NaCl, 1 mM EDTA, 50 mM citrate pH 6.0, and 1 mM dithiothreitol (DTT)} and Compound 1 at various concentrations at 30° C. for 30 minutes, and then the reaction was terminated with a 1 N-sodium hydroxide (NaOH) solution. The absorbance of the samples thus prepared was measured to confirm the inhibition degree (IC50: The half maximal inhibitory concentration) for PTP1B activity according to the concentration of Compound 1. Even for glabridin, Compound 3, Compound 4, Compound 5, Compound 14, Compound 15, Compound 16, Compound 18, Compound 19, and Compound 21, the same measurement was performed.

IC50 (BV2 microglia cells): 2300 nM | IC50 (RAW264.7 macrophages; Mus musculus, RAW264.7, NO production, LPS 1 μg/ml, 24 hours): 4400 nM | IC50 (PTP1B): 1900 nM
Structure (SMILES): CCCOc1ccc(C2COc3c(ccc4c3CCC(C)(C)O4)C2)c(O)c1 (stereo not drawn) [Compound 16, 3-(2-hydroxy-4-propoxyphenyl)-8,8-dimethyl-2,3,4,8,9,10-hexahydropyrano [2,3-f] chromene]
inhibition in vivo at 150 mg/kg (DIO mice): 7% | effect of suppressing the production of NO (RAW264.7 macrophages; RAW264.7 macrophages, in words): excellent | liver tissue observation by microscope (db/db mice [1]): small and compact adipocytes | HbA1c (%) 4 weeks (db/db mice [2]; 4 weeks after administration, 300 mg/kg oral once daily): 6.7% | HbA1c (%) 6 weeks (db/db mice [2]; 6 weeks after administration, 300 mg/kg oral once daily): 6.2% | HbA1c (%) Before administration (db/db mice [2]; before administration, 300 mg/kg group): 4.7%
